US20220306695A1, “COMPSTATIN ANALOGUES AND THEIR MEDICAL USES” (priority 2019, published 2022)
Like-named read-outs stand apart in the source and are kept apart here. Positions of bridges follow the written chain, without caps; N, C: chain ends. Non-standard residues stand in square brackets, D forms with d. Residues, ends and D or L forms follow the SMILES beside them. Sar = CNCC(=O)O

Columns and labels:
[1] = Solubility test at 10 mg/mL (visual inspection and light scattering); type: physicochemical; conditions: for Solubility, Condition 1 Acetate pH 4: 10 mg/mL compound in 100 mM acetate pH 4; for Solubility, Condition 2 Acetate pH 5: 10 mg/mL compound in 100 mM acetate pH 5; for Solubility, Condition 3 Phosphate pH 6: 10 mg/mL compound in 100 mM phosphate pH 6; for Solubility, Condition 4 Phosphate pH 7: 10 mg/mL compound in 100 mM phosphate pH 7; for Solubility, Condition 5 Phosphate pH 7.5: 10 mg/mL compound in 100 mM phosphate pH 7.5
Protocol: The solubility of compounds was assessed by measuring light scattering over a pH interval from pH 4 to pH 7.5.
Compounds were dissolved in a stock solution of 20 mg/mL in H2O at pH 2.5 or pH 10.
These stock solutions were diluted 1:1 with 200 mM buffered solution to reach a final solution of 10 mg/mL compound in 100 mM buffer. The 5 investigated conditions were (1) acetate pH 4.0, (2) acetate pH 5.0, (3) phosphate pH 6.0, (4) phosphate pH 7 and (5) phosphate pH 7.5.
Visual inspection included manually checking the 96 well plate for wells that are clear or non-clear. In addition to this a picture of the 96 well plate is taken.
Absorbance was measured at four wavelengths: 280 nm, 325 nm, 340 nm and 360 nm in an UV transparent 96 well microplate in a SpectraMax 190 microplate reader (Molecular Devices).
The criteria for this was a combination of visual inspection and light scattering not exceeding 0.1 AU, where values below 0.1 AU are good in visually clear samples. […]

[2] = system: classical complement pathway; assay: In vitro haemolysis assay (inhibition of classical complement pathway); type: cell-based, human
Outline: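 Serially diluted compound (9 points) was preincubated 15 min at room temperature with diluted human serum, titrated per batch to give 70-90% maximal haemolysis, in Tris/casein buffer pH 7.4 with Mg2+/Ca2+. Antibody-sensitized sheep erythrocytes were then added for 30 min at 37° C, and the reaction was stopped with EDTA. Haemolysis was read at A405, with IC50 from 4PL fit.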

[3] = Table 3, human serum, sensitized sheep red blood cells, read-out: IC50[nM], in vitro analysis of inhibition of hemolysis

For `CC[C@H](C)[C@H](NC(=O)[C@H](C)NC(=O)[C@H](CO)NC(=O)[C@H](CO)NC(=O)[C@H](CCC(=O)O)NC(C)=O)C(=O)N[C@H]1CSSC[C@@H](C(=O)N[C@H](C(=O)NCC(=O)N[C@@H](C)C(=O)N[C@@H](CCC(=O)O)C(=O)N[C@@H](CO)C(N)=O)[C@@H](C)O)NC(=O)[C@H](CCCNC(=N)N)NC(=O)[C@H](Cc2c[nH]cn2)NC(=O)[C@H](CCC(=O)O)NC(=O)CNC(=O)[C@H](Cc2c[nH]c3ccccc23)NC(=O)[C@H](CC(=O)O)NC(=O)[C@H](CCC(N)=O)NC(=O)[C@H](Cc2c[nH]c3ccccc23)NC(=O)[C@H]([C@@H](C)CC)NC1=O` [Compound 14] (Ac-ESSAICIWQDWGEHRCTGAES-NH2; disulfide 6-16), which “Solubility, Condition 1 Acetate pH 4” value [1] is on record?
Its value is “+ (denotes solubility at the given condition, as determined by UV absorbance being less than 0.1 AU at 340 nm and the sample being clear when manually inspected.)”.

And the “Solubility, Condition 2 Acetate pH 5” value [1]?
Its value is “− (denotes lack of solubility at the given condition, as UV absorbance at 340 nm exceeds 0.1 AU and/or it is visibly turbid or contains particles.)”.

What about the “Solubility, Condition 3 Phosphate pH 6” value [1] of the same compound?
Its value is “− (denotes lack of solubility at the given condition, as UV absorbance at 340 nm exceeds 0.1 AU and/or it is visibly turbid or contains particles.)”.

What about the “Solubility, Condition 4 Phosphate pH 7” value [1] of the same compound?
The value was “+ (denotes solubility at the given condition, as determined by UV absorbance being less than 0.1 AU at 340 nm and the sample being clear when manually inspected.)”.

And the “Solubility, Condition 5 Phosphate pH 7.5” value [1]?
The value was “+ (denotes solubility at the given condition, as determined by UV absorbance being less than 0.1 AU at 340 nm and the sample being clear when manually inspected.)”.

And the IC50 [2, 3]?
Its IC50 is less than 100 nM.

For `CC[C@H](C)[C@H](NC(C)=O)C(=O)N[C@H]1CSSC[C@@H](C(=O)N[C@@H](CCC(=O)O)C(N)=O)NC(=O)[C@H](CCCNC(=N)N)NC(=O)[C@H](Cc2c[nH]cn2)NC(=O)[C@H](CCC(=O)O)NC(=O)CNC(=O)[C@H](Cc2c[nH]c3ccccc23)NC(=O)[C@H](CC(=O)O)NC(=O)[C@H](CCC(N)=O)NC(=O)[C@H](Cc2c[nH]c3ccccc23)NC(=O)[C@H]([C@@H](C)CC)NC1=O` [Compound 22] (Ac-ICIWQDWGEHRCE-NH2; disulfide 2-12), which “Solubility, Condition 1 Acetate pH 4” value [1] is on record?
Its value is “+ (denotes solubility at the given condition, as determined by UV absorbance being less than 0.1 AU at 340 nm and the sample being clear when manually inspected.)”.

What about the “Solubility, Condition 2 Acetate pH 5” value [1] of the same compound?
The value was “− (denotes lack of solubility at the given condition, as UV absorbance at 340 nm exceeds 0.1 AU and/or it is visibly turbid or contains particles.)”.

And the “Solubility, Condition 3 Phosphate pH 6” value [1]?
Its value is “− (denotes lack of solubility at the given condition, as UV absorbance at 340 nm exceeds 0.1 AU and/or it is visibly turbid or contains particles.)”.

What about the “Solubility, Condition 4 Phosphate pH 7” value [1] of the same compound?
The value was “+ (denotes solubility at the given condition, as determined by UV absorbance being less than 0.1 AU at 340 nm and the sample being clear when manually inspected.)”.

And the “Solubility, Condition 5 Phosphate pH 7.5” value [1]?
The value was “+ (denotes solubility at the given condition, as determined by UV absorbance being less than 0.1 AU at 340 nm and the sample being clear when manually inspected.)”.

What about the IC50 [2, 3] of the same compound?
The IC50 was less than 100 nM.

What does the source list for `CC[C@H](C)[C@H](NC(C)=O)C(=O)N[C@H]1CSSC[C@@H](C(=O)N[C@H](C(=O)N[C@@H](CCC(=O)O)C(=O)N[C@@H](C)C(N)=O)[C@@H](C)O)NC(=O)[C@H](CCCNC(=N)N)NC(=O)[C@H](Cc2c[nH]cn2)NC(=O)[C@H](CCC(=O)O)NC(=O)CNC(=O)[C@H](Cc2c[nH]c3ccccc23)NC(=O)[C@H](CC(=O)O)NC(=O)[C@H](CCC(N)=O)NC(=O)[C@H](Cc2c[nH]c3ccccc23)NC(=O)[C@H]([C@@H](C)CC)NC1=O` [Compound 25] (Ac-ICIWQDWGEHRCTEA-NH2; disulfide 2-12)?
Solubility, Condition 1 Acetate pH 4 [1]: + (denotes solubility at the given condition, as determined by UV absorbance being less than 0.1 AU at 340 nm and the sample being clear when manually inspected.); Solubility, Condition 2 Acetate pH 5 [1]: − (denotes lack of solubility at the given condition, as UV absorbance at 340 nm exceeds 0.1 AU and/or it is visibly turbid or contains particles.); Solubility, Condition 3 Phosphate pH 6 [1]: − (denotes lack of solubility at the given condition, as UV absorbance at 340 nm exceeds 0.1 AU and/or it is visibly turbid or contains particles.); Solubility, Condition 4 Phosphate pH 7 [1]: + (denotes solubility at the given condition, as determined by UV absorbance being less than 0.1 AU at 340 nm and the sample being clear when manually inspected.); Solubility, Condition 5 Phosphate pH 7.5 [1]: + (denotes solubility at the given condition, as determined by UV absorbance being less than 0.1 AU at 340 nm and the sample being clear when manually inspected.); IC50 [2, 3]: < 100 nM

Which “Solubility, Condition 1 Acetate pH 4” value [1] does the source give for `CC[C@H](C)[C@H](NC(C)=O)C(=O)N[C@H]1CSSC[C@@H](C(=O)N[C@@H](CCC(=O)O)C(=O)NCC(=O)N[C@@H](CCC(=O)O)C(N)=O)NC(=O)[C@H](CCCNC(=N)N)NC(=O)[C@H](Cc2c[nH]cn2)NC(=O)[C@H](CCC(=O)O)NC(=O)CNC(=O)[C@H](Cc2c[nH]c3ccccc23)NC(=O)[C@H](CC(=O)O)NC(=O)[C@H](CCC(N)=O)NC(=O)[C@H](Cc2c[nH]c3ccccc23)NC(=O)[C@H]([C@@H](C)CC)NC1=O` [Compound 27] (Ac-ICIWQDWGEHRCEGE-NH2; disulfide 2-12) here?
Its value is “− (denotes lack of solubility at the given condition, as UV absorbance at 340 nm exceeds 0.1 AU and/or it is visibly turbid or contains particles.)”.

What about the “Solubility, Condition 2 Acetate pH 5” value [1] of the same compound?
Its value is “− (denotes lack of solubility at the given condition, as UV absorbance at 340 nm exceeds 0.1 AU and/or it is visibly turbid or contains particles.)”.

What about the “Solubility, Condition 3 Phosphate pH 6” value [1] of the same compound?
Its value is “− (denotes lack of solubility at the given condition, as UV absorbance at 340 nm exceeds 0.1 AU and/or it is visibly turbid or contains particles.)”.

What about the “Solubility, Condition 4 Phosphate pH 7” value [1] of the same compound?
Its value is “+ (denotes solubility at the given condition, as determined by UV absorbance being less than 0.1 AU at 340 nm and the sample being clear when manually inspected.)”.

And the “Solubility, Condition 5 Phosphate pH 7.5” value [1]?
The value was “+ (denotes solubility at the given condition, as determined by UV absorbance being less than 0.1 AU at 340 nm and the sample being clear when manually inspected.)”.

What about the IC50 [2, 3] of the same compound?
The IC50 was less than 100 nM.

For `CC[C@H](C)[C@H](NC(=O)[C@H](C)NC(=O)[C@H](CO)NC(=O)CNC(=O)[C@H](CCC(=O)O)NC(C)=O)C(=O)N[C@H]1CSSC[C@@H](C(=O)N(C)CC(=O)N[C@@H](CCC(=O)O)C(N)=O)NC(=O)[C@H](CCCNC(=N)N)NC(=O)[C@H](Cc2c[nH]cn2)NC(=O)[C@H](CCC(=O)O)NC(=O)CNC(=O)[C@H](Cc2c[nH]c3ccccc23)NC(=O)[C@H](CC(=O)O)NC(=O)[C@H](CCC(N)=O)NC(=O)[C@H](Cc2c[nH]c3ccccc23)NC(=O)[C@H]([C@@H](C)CC)NC1=O` [Compound 28] (Ac-EGSAICIWQDWGEHRC[Sar]E-NH2; disulfide 6-16), which “Solubility, Condition 1 Acetate pH 4” value [1] is on record?
Its value is “+ (denotes solubility at the given condition, as determined by UV absorbance being less than 0.1 AU at 340 nm and the sample being clear when manually inspected.)”.

What about the “Solubility, Condition 2 Acetate pH 5” value [1] of the same compound?
Its value is “+ (denotes solubility at the given condition, as determined by UV absorbance being less than 0.1 AU at 340 nm and the sample being clear when manually inspected.)”.

What about the “Solubility, Condition 3 Phosphate pH 6” value [1] of the same compound?
The value was “+ (denotes solubility at the given condition, as determined by UV absorbance being less than 0.1 AU at 340 nm and the sample being clear when manually inspected.)”.

And the “Solubility, Condition 4 Phosphate pH 7” value [1]?
Its value is “+ (denotes solubility at the given condition, as determined by UV absorbance being less than 0.1 AU at 340 nm and the sample being clear when manually inspected.)”.

And the “Solubility, Condition 5 Phosphate pH 7.5” value [1]?
The value was “+ (denotes solubility at the given condition, as determined by UV absorbance being less than 0.1 AU at 340 nm and the sample being clear when manually inspected.)”.

What about the IC50 [2, 3] of the same compound?
Its IC50 is less than 100 nM.

What about the IC50 ([2]; Table 4, valine 3 versus isoleucine 3 pairs, read-out: CP hemolysis IC50) of the same compound?
Its IC50 is 88 nM.

What does the source list for `CC[C@H](C)[C@@H]1NC(=O)[C@@H](NC(=O)[C@@H](NC(=O)[C@H](CCC(=O)O)NC(=O)CNC(=O)[C@H](CCC(=O)O)NC(C)=O)[C@@H](C)CC)CSSC[C@@H](C(=O)N[C@H](C(N)=O)[C@@H](C)O)NC(=O)[C@H](CCCNC(=N)N)NC(=O)[C@H](Cc2c[nH]cn2)NC(=O)[C@H](CCC(=O)O)NC(=O)CNC(=O)[C@H](Cc2c[nH]c3ccccc23)NC(=O)[C@H](CC(=O)O)NC(=O)[C@H](CCC(N)=O)NC(=O)[C@H](Cc2c[nH]c3ccccc23)NC1=O` [Compound 30] (Ac-EGEICIWQDWGEHRCT-NH2; disulfide 5-15)?
Solubility, Condition 1 Acetate pH 4 [1]: − (denotes lack of solubility at the given condition, as UV absorbance at 340 nm exceeds 0.1 AU and/or it is visibly turbid or contains particles.); Solubility, Condition 2 Acetate pH 5 [1]: − (denotes lack of solubility at the given condition, as UV absorbance at 340 nm exceeds 0.1 AU and/or it is visibly turbid or contains particles.); Solubility, Condition 3 Phosphate pH 6 [1]: − (denotes lack of solubility at the given condition, as UV absorbance at 340 nm exceeds 0.1 AU and/or it is visibly turbid or contains particles.); Solubility, Condition 4 Phosphate pH 7 [1]: + (denotes solubility at the given condition, as determined by UV absorbance being less than 0.1 AU at 340 nm and the sample being clear when manually inspected.); Solubility, Condition 5 Phosphate pH 7.5 [1]: + (denotes solubility at the given condition, as determined by UV absorbance being less than 0.1 AU at 340 nm and the sample being clear when manually inspected.); IC50 [2, 3]: < 100 nM
